Measured values reported in PubChem BioAssay (NCI).
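Here, GI50 denotes the concentration required for 50% inhibition of growth. TGI marks complete inhibition of growth.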

Assays:
Experiment in all cases: NCI anticancer screen, dose series, 384-well format
[1] = tested on: PC-3 prostate
[2] = tested on: CAKI-1 renal
[3] = tested on: MOLT-4 leukemia
[4] = tested on: HCT-116 colon
[5] = tested on: HOP-92 NSCLC
[6] = tested on: HS 578T breast
[7] = tested on: HT29 colon
[8] = tested on: SK-MEL-2 melanoma
[9] = tested on: HOP-62 NSCLC
[10] = tested on: T-47D breast
[11] = tested on: SK-MEL-5 melanoma
[12] = tested on: 786-0 renal
[13] = tested on: M14 melanoma
[14] = tested on: UO-31 renal
[15] = tested on: KM12 colon
[16] = tested on: MDA-MB-435 melanoma
[17] = tested on: NCI-H226 lung
[18] = tested on: A498 renal
[19] = tested on: UACC-257 melanoma
[20] = tested on: OVCAR-5 ovarian
[21] = tested on: HL-60(TB) leukemia
[22] = tested on: MDA-MB-468 breast
[23] = tested on: U251 glioblastoma
[24] = tested on: IGROV1 ovarian
[25] = tested on: OVCAR-4 ovarian
[26] = tested on: TK-10 renal
[27] = tested on: OVCAR-3 ovarian
[28] = tested on: COLO 205 colon
[29] = tested on: SF-295 CNS
[30] = tested on: ACHN renal
[31] = tested on: SNB-19 CNS
[32] = tested on: A549 NSCLC
[33] = tested on: K-562 leukemia
[34] = tested on: NCI-H522 lung
[35] = tested on: MDA-MB-231 breast
[36] = tested on: OVCAR-8 ovarian
[37] = tested on: BT-549 breast
[38] = tested on: SN12C renal
[39] = tested on: EKVX NSCLC
[40] = tested on: HCT-15 colon
[41] = tested on: SW-620 colon
[42] = tested on: SR leukemia
[43] = tested on: SF-268 CNS
[44] = tested on: UACC-62 melanoma
[45] = tested on: MALME-3M melanoma
[46] = tested on: SF-539 CNS
[47] = tested on: SK-OV-3 ovarian
[48] = tested on: SK-MEL-28 melanoma
[49] = tested on: SNB-75 CNS
[50] = tested on: MCF7 breast
[51] = tested on: NCI-H322M lung
[52] = tested on: NCI-H460 NSCLC
[53] = tested on: RXF 393 renal

Question: With C=CCNC1=C2C[C@@H](C)C[C@H](OC)[C@H](O)[C@@H](C)/C=C(\C)[C@H](OC(N)=O)[C@@H](OC)/C=C\C=C(/C)C(=O)NC(=CC1=O)C2=O as the compound, how does the GI50 [1] read?
Answer: 22.9 nM

Question: What about the TGI [1] of the same compound?
Answer: 124 nM

Question: What about the GI50 [2] of the same compound?
Answer: 140 nM

Question: What about the TGI [2] of the same compound?
Answer: 14700 nM

Question: And the GI50 [3]?
Answer: 145 nM

Question: And the TGI [3]?
Answer: 336 nM

Question: And the GI50 [4]?
Answer: 36.5 nM

Question: And the TGI [4]?
Answer: 8320 nM

Question: And the GI50 [5]?
Answer: 716 nM

Question: And the TGI [5]?
Answer: 3140 nM

Question: And the GI50 [6]?
Answer: < 10 nM

Question: What about the TGI [6] of the same compound?
Answer: 20.2 nM

Question: And the GI50 [7]?
Answer: < 10 nM

Question: And the TGI [7]?
Answer: 10700 nM

Question: What about the GI50 [8] of the same compound?
Answer: < 10 nM

Question: And the TGI [8]?
Answer: 112 nM

Question: What about the GI50 [9] of the same compound?
Answer: 20.4 nM

Question: What about the TGI [9] of the same compound?
Answer: 1750 nM

Question: And the GI50 [10]?
Answer: 838 nM

Question: What about the TGI [10] of the same compound?
Answer: 6160 nM

Question: And the GI50 [11]?
Answer: < 10 nM

Question: And the TGI [11]?
Answer: 2900 nM

Question: And the GI50 [12]?
Answer: 65.7 nM

Question: What about the TGI [12] of the same compound?
Answer: 271 nM

Question: What about the GI50 [13] of the same compound?
Answer: < 10 nM

Question: And the TGI [13]?
Answer: 11400 nM

Question: What about the GI50 [14] of the same compound?
Answer: 340 nM

Question: What about the TGI [14] of the same compound?
Answer: 12000 nM

Question: What about the GI50 [15] of the same compound?
Answer: < 10 nM

Question: And the TGI [15]?
Answer: 11.5 nM

Question: And the GI50 [16]?
Answer: 34 nM

Question: What about the TGI [16] of the same compound?
Answer: 13700 nM

Question: And the GI50 [17]?
Answer: 33.3 nM

Question: And the TGI [17]?
Answer: 440 nM

Question: And the GI50 [18]?
Answer: 34.5 nM

Question: What about the TGI [18] of the same compound?
Answer: 12400 nM

Question: What about the GI50 [19] of the same compound?
Answer: 27.4 nM

Question: What about the TGI [19] of the same compound?
Answer: 1350 nM

Question: And the GI50 [20]?
Answer: 59.2 nM

Question: What about the TGI [20] of the same compound?
Answer: 12600 nM

Question: What about the GI50 [21] of the same compound?
Answer: 31 nM

Question: What about the TGI [21] of the same compound?
Answer: 169 nM

Question: What about the GI50 [22] of the same compound?
Answer: 180 nM

Question: And the TGI [22]?
Answer: 733 nM

Question: And the GI50 [23]?
Answer: 26.2 nM

Question: What about the TGI [23] of the same compound?
Answer: 167 nM

Question: What about the GI50 [24] of the same compound?
Answer: 27.1 nM

Question: What about the TGI [24] of the same compound?
Answer: 281 nM

Question: What about the GI50 [25] of the same compound?
Answer: 158 nM

Question: And the TGI [25]?
Answer: 12000 nM

Question: And the GI50 [26]?
Answer: 35.7 nM

Question: And the TGI [26]?
Answer: 13500 nM

Question: And the GI50 [27]?
Answer: 37.1 nM

Question: What about the TGI [27] of the same compound?
Answer: 447 nM

Question: What about the GI50 [28] of the same compound?
Answer: < 10 nM

Question: And the TGI [28]?
Answer: 11 nM

Question: And the GI50 [29]?
Answer: 21.9 nM

Question: And the TGI [29]?
Answer: 121 nM

Question: What about the GI50 [30] of the same compound?
Answer: 83.2 nM

Question: What about the TGI [30] of the same compound?
Answer: 12000 nM

Question: And the GI50 [31]?
Answer: 50.8 nM

Question: What about the TGI [31] of the same compound?
Answer: 10800 nM

Question: And the GI50 [32]?
Answer: < 10 nM

Question: What about the TGI [32] of the same compound?
Answer: 10500 nM

Question: What about the GI50 [33] of the same compound?
Answer: 27.6 nM

Question: And the TGI [33]?
Answer: 10300 nM

Question: What about the GI50 [34] of the same compound?
Answer: 13.6 nM

Question: What about the TGI [34] of the same compound?
Answer: 47.4 nM

Question: What about the GI50 [35] of the same compound?
Answer: 422 nM

Question: And the TGI [35]?
Answer: 2240 nM

Question: What about the GI50 [36] of the same compound?
Answer: 42.2 nM

Question: What about the TGI [36] of the same compound?
Answer: 205 nM

Question: What about the GI50 [37] of the same compound?
Answer: < 10 nM

Question: And the TGI [37]?
Answer: 31.2 nM

Question: What about the GI50 [38] of the same compound?
Answer: 17.2 nM

Question: And the TGI [38]?
Answer: 255 nM

Question: What about the GI50 [39] of the same compound?
Answer: 44.8 nM

Question: What about the TGI [39] of the same compound?
Answer: 419 nM

Question: And the GI50 [40]?
Answer: 51.9 nM

Question: What about the TGI [40] of the same compound?
Answer: 5340 nM

Question: And the GI50 [41]?
Answer: 16 nM

Question: What about the TGI [41] of the same compound?
Answer: 10900 nM

Question: What about the GI50 [42] of the same compound?
Answer: 11 nM

Question: And the TGI [42]?
Answer: 25.3 nM

Question: And the GI50 [43]?
Answer: 27.4 nM

Question: And the TGI [43]?
Answer: 11100 nM

Question: And the GI50 [44]?
Answer: 11.8 nM

Question: What about the TGI [44] of the same compound?
Answer: 53.5 nM

Question: And the GI50 [45]?
Answer: < 10 nM

Question: What about the TGI [45] of the same compound?
Answer: 282 nM

Question: What about the GI50 [46] of the same compound?
Answer: 13.9 nM

Question: What about the TGI [46] of the same compound?
Answer: 36.1 nM

Question: And the GI50 [47]?
Answer: 14.8 nM

Question: And the TGI [47]?
Answer: 99.5 nM

Question: What about the GI50 [48] of the same compound?
Answer: 29.5 nM

Question: What about the TGI [48] of the same compound?
Answer: 15200 nM

Question: And the GI50 [49]?
Answer: 13.8 nM

Question: And the TGI [49]?
Answer: 73.8 nM

Question: What about the GI50 [50] of the same compound?
Answer: < 10 nM

Question: What about the TGI [50] of the same compound?
Answer: 41.6 nM

Question: What about the GI50 [51] of the same compound?
Answer: < 10 nM

Question: And the TGI [51]?
Answer: 10100 nM

Question: And the GI50 [52]?
Answer: < 10 nM

Question: What about the TGI [52] of the same compound?
Answer: 1610 nM

Question: What about the GI50 [53] of the same compound?
Answer: 16.5 nM

Question: And the TGI [53]?
Answer: 65.6 nM
